For one series, the system named is Rhizomucor miehei. Description: Antimicrobial activity against Mucor miehei at 10 ug/disk by agar diffusion method. The class given is functional. The note with it: read-out: IZ. (In general: A growth-free zone around the sample is the usual read-out of agar diffusion tests.)
Series [1] in a line: Toxicity against Artemia salina assessed as mortality rate at 10 ug/mL after 24 hrs by small modified microtiter-plate method. The note with it: in vivo, read-out: Activity. The format is organism-based.

Take `C/C1=C\[C@@H](C)C/C=C/[C@H]2[C@@H]3O[C@]3(C)[C@@H](C)[C@H]3[C@H](Cc4c[nH]c5ccccc45)NC(=O)[C@]32C(=O)/C=C/C(=O)[C@@H]1O` [CHAETOGLOBOSIN A]: in the series on Rhizomucor miehei, the zone of inhibition at 10 µg/disc worked out at 25 mm. Further, in series [1], the mortality at 24 h, 10 ug/mL was 83.4%.

For the compound `C/C1=C\[C@@H](C)C/C=C/[C@H]2[C@@H]3O[C@]3(C)[C@@H](C)[C@H]3[C@H](Cc4c[nH]c5ccccc45)NC(=O)[C@]32C(=O)CCC(=O)C1=O` [CHAETOGLOBOSIN C], the zone of inhibition at 10 µg/disc in the series on Rhizomucor miehei was determined as 15 mm. Also, in series [1], the mortality at 24 h, 10 ug/mL was found to be 75.3%.

Take `C[C@H](/C=C/C1=CC2=C(Cl)C(=O)[C@@]3(C)O[C@]4(O)[C@H](C)[C@@H](C)OC(=O)[C@@H]4[C@H]3C2=CO1)[C@@H](C)O` [CHAETOMUGILIN A]: the mortality at 24 h, 10 ug/mL in series [1] amounted to 78.3%.

`CC[C@H](C)/C=C/C1=CC2=C(Cl)C(=O)[C@@]3(C)O[C@]4(O)[C@H](C)[C@@H](C)OC(=O)[C@@H]4[C@H]3C2=CO1` [CHAETOMUGILIN D]: the mortality at 24 h, 10 ug/mL in series [1] was determined as 75.2%.

(Values after ChEMBL document CHEMBL1153329, “Bioactive metabolites produced by Chaetomium globosum, an endophytic fungus isolated from Ginkgo biloba” (Bioorg Med Chem Lett, 2009).)
